Reference: patent US20230278995A1, “1,3,4-OXADIAZOLE DERIVATIVE COMPOUNDS AS HISTONE DEACETYLASE 6 INHIBITOR, AND THE PHARMACEUTICAL COMPOSITION COMPRISING THE SAME” (CHONG KUN DANG PHARMACEUTICAL CORP., priority 2020, published 2023)

Assays:
human recombinant HDAC6 = molecular target: T1, human recombinant HDAC6 (Homo sapiens, UniProt Q9UBN7); assay: HDAC enzyme activity inhibition assay (HDAC Fluorimetric Drug Discovery Kit), HDAC6; format: biochemical; conditions: for HDAC6 selectivity (fold): HDAC1 vs HDAC6; for IC50: human recombinant HDAC6, same protocol as HDAC1
T1 construct: purchased Calbiochem Inc. 382180
T1 sequence (Q9UBN7 1-1215): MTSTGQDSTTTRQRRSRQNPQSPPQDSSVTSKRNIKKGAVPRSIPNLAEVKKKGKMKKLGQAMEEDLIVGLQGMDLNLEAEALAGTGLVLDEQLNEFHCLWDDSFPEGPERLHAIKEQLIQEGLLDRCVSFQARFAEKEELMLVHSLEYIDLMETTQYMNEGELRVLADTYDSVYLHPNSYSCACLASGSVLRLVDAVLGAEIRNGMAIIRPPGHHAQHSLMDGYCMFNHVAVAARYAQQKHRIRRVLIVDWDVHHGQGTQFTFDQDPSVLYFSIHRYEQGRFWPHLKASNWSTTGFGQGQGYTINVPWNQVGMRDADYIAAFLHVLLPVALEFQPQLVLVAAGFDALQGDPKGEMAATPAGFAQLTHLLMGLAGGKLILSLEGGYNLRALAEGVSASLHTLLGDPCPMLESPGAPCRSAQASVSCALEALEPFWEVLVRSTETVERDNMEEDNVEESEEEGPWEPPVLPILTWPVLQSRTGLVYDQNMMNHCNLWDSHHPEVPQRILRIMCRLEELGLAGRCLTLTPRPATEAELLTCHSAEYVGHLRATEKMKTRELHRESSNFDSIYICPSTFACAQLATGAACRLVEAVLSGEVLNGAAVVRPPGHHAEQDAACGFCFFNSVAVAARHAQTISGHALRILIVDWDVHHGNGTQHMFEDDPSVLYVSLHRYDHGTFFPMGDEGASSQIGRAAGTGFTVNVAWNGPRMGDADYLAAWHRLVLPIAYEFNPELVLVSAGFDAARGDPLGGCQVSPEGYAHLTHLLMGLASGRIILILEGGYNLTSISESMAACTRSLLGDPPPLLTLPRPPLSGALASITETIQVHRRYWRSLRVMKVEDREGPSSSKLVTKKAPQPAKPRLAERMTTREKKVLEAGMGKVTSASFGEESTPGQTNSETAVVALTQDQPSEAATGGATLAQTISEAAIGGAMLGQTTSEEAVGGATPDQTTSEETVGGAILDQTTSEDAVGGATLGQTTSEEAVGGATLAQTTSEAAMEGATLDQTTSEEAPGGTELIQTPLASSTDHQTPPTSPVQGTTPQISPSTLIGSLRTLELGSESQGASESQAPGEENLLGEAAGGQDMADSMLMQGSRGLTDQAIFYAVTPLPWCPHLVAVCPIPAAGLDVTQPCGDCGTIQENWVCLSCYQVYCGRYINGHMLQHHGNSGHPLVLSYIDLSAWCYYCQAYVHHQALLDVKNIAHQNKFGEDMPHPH
In short: (§1)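 The preceding reaction ran 60 min at 30 °C with 0.3 μg recombinant human enzyme, HDAC1 or HDAC6 under an identical protocol, and 10 μM Fluor de Lys-SIRT1 substrate, across 5-fold diluted compound.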

human recombinant HDAC1 = molecular target: T2, human recombinant HDAC1 (Homo sapiens, UniProt Q13547); assay: HDAC enzyme activity inhibition assay (HDAC Fluorimetric Drug Discovery Kit), HDAC1; format: biochemical; conditions: human recombinant HDAC1, Fluor de Lys-SIRT1 substrate, 30° C. 60 minutes
T2 construct: purchased Enzo Life Sciences, Inc. BML-SE456
T2 sequence (Q13547 whole entry): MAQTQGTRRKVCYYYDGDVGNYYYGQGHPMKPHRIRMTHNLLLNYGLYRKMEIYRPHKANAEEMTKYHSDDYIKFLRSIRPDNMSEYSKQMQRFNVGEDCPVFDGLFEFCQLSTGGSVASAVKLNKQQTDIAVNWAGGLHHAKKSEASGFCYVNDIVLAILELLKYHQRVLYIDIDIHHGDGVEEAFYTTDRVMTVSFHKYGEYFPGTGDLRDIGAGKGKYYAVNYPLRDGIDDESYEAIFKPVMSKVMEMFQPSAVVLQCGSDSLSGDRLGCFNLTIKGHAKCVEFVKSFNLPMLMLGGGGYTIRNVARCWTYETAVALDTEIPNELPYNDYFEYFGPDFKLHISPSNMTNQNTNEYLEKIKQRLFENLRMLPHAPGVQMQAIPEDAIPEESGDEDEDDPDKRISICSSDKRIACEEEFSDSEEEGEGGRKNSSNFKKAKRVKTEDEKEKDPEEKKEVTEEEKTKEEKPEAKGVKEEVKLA
In short: as §1

Row | HDAC6 selectivity (fold) (human recombinant HDAC6) | IC50 (human recombinant HDAC6) [nM] | IC50 (human recombinant HDAC1) [nM] | Compound
1 | 943 fold | 53 | > 50000 | CCCN1CC(F)(C(=O)N(Cc2ccc(-c3nnc(C(F)F)o3)cn2)c2ccccc2)C1 [Compound 3002, N-((5-(5-(difluoromethyl)-1,3,4-oxadiazol-2-yl)pyridin-2-yl)methyl)-3-fluoro-N-phenyl-1-propylazetidine-3-carboxamide]
2 | 226 fold | 221 | > 50000 | CC(C)N1CCC(F)(C(=O)N(Cc2ccc(-c3nnc(C(F)F)o3)cc2F)c2ccccc2)CC1 [Compound 3437, N-(4-(5-(difluoromethyl)-1,3,4-oxadiazol-2-yl)-2-fluorobenzyl)-4-fluoro-1-isopropyl-N-phenylpiperidine-4-carboxamide]
3 | 1,157 fold | 43.2 | > 50000 | O=C(N(Cc1ccc(-c2nnc(C(F)F)o2)cn1)c1ccccc1)C1(F)CN(C2CCOCC2)C1 [Compound 3000, N-((5-(5-(difluoromethyl)-1,3,4-oxadiazol-2-yl)pyridin-2-yl)methyl)-3-fluoro-N-phenyl-1-(tetrahydro-2H-pyran-4-yl)azetidine-3-carboxamide]
4 | 1,400 fold | 35.7 | > 50000 | O=C(C1CC1)N1CC(F)(C(=O)N(Cc2ccc(-c3nnc(C(F)F)o3)cn2)c2ccccc2)C1 [Compound 3158, 1-(cyclopropanecarbonyl)-N-((5-(5-(difluoromethyl)-1,3,4-oxadiazol-2-yl)pyridin-2-yl)methyl)-3-fluoro-N-phenylazetidine-3-carboxamide]
5 | 1,326 fold | 37.7 | > 50000 | CC(C)N1CC(N2CC(F)(C(=O)N(Cc3ccc(-c4nnc(C(F)F)o4)cn3)c3cccc(F)c3)C2)C1 [Compound 3224]
6 | 242 fold | 85.7 | 20800 | CN1CC(F)(C(=O)N(Cc2ccc(-c3nnc(C(F)F)o3)cn2)c2cccc(F)c2)C1 [Compound 3047, N-((5-(5-(difluoromethyl)-1,3,4-oxadiazol-2-yl)pyridin-2-yl)methyl)-3-fluoro-N-(3-fluorophenyl)-1-methylazetidine-3-carboxamide]
7 | 1,827 fold | 27.4 | > 50000 | CCCCN1CC(N2CC(F)(C(=O)N(Cc3ccc(-c4nnc(C(F)F)o4)cn3)c3ccccc3)C2)C1 [Compound 3108, 1′-butyl-N-((5-(5-(difluoromethyl)-1,3,4-oxadiazol-2-yl)pyridin-2-yl)methyl)-3-fluoro-N-phenyl-[1,3′-biazetidine]-3-carboxamide]
8 | 1,262 fold | 39.6 | > 50000 | CCN1CC(N2CC(F)(C(=O)N(Cc3ccc(-c4nnc(C(F)F)o4)cn3)c3ccccc3)C2)C1 [Compound 3106, N-((5-(5-(difluoromethyl)-1,3,4-oxadiazol-2-yl)pyridin-2-yl)methyl)-1′-ethyl-3-fluoro-N-phenyl-[1,3′-biazetidine]-3-carboxamide]
9 | 1,440 fold | 34.7 | > 50000 | O=C(C1CC1)N1CC(F)(C(=O)N(Cc2ccc(-c3nnc(C(F)F)o3)cn2)c2cccc(F)c2)C1 [Compound 3217, 1-(cyclopropanecarbonyl)-N-((5-(5-(difluoromethyl)-1,3,4-oxadiazol-2-yl)pyridin-2-yl)methyl)-3-fluoro-N-(3-fluorophenyl)azetidine-3-carboxamide]
10 | 97 fold | 204 | > 20000 | CCN1CCC(F)(C(=O)N(Cc2ccc(-c3nnc(C(F)F)o3)cc2F)c2ccccc2)CC1 [Compound 2867, N-(4-(5-(difluoromethyl)-1,3,4-oxadiazol-2-yl)-2-fluorobenzyl)-1-ethyl-4-fluoro-N-phenylpiperidine-4-carboxamide]
11 | 448 fold | 85.9 | 38500 | CCC(=O)N1CC(F)(C(=O)N(Cc2ccc(-c3nnc(C(F)F)o3)cc2F)c2ccccc2)C1 [Compound 3433, N-(4-(5-(difluoromethyl)-1,3,4-oxadiazol-2-yl)-2-fluorobenzyl)-3-fluoro-N-phenyl-1-propionylazetidine-3-carboxamide]
12 | 1,326 fold | 37.7 | > 50000 | CC(C)CC(=O)N1CC(F)(C(=O)N(Cc2ccc(-c3nnc(C(F)F)o3)cn2)c2ccccc2)C1 [Compound 3155, N-((5-(5-(difluoromethyl)-1,3,4-oxadiazol-2-yl)pyridin-2-yl)methyl)-3-fluoro-1-(3-methylbutanoyl)-N-phenylazetidine-3-carboxamide]
13 | 1,945 fold | 25.7 | > 50000 | CN(C)CCCC(=O)N1CC(F)(C(=O)N(Cc2ccc(-c3nnc(C(F)F)o3)cn2)c2ccccc2)C1 [Compound 3007, N-((5-(5-(difluoromethyl)-1,3,4-oxadiazol-2-yl)pyridin-2-yl)methyl)-1-(4-(dimethylamino)butanoyl)-3-fluoro-N-phenylazetidine-3-carboxamide]
14 | 1,015 fold | 23.8 | 24200 | CCCN1CC(N2CCC(F)(C(=O)N(Cc3ccc(-c4nnc(C(F)F)o4)cn3)c3cccc(F)c3)CC2)C1 [Compound 3390, N-((5-(5-(difluoromethyl)-1,3,4-oxadiazol-2-yl)pyridin-2-yl)methyl)-4-fluoro-N-(3-fluorophenyl)-1-(1-propylazetidine-3-yl)piperidin-4-carboxamide]
15 | 600 fold | 83.3 | > 50000 | O=C(N(Cc1ccc(-c2nnc(C(F)F)o2)cn1)c1ccccc1)C1(F)CCN(C2CC3(COC3)C2)CC1 [Compound 2995, N-((5-(5-(difluoromethyl)-1,3,4-oxadiazol-2-yl)pyridin-2-yl)methyl)-4-fluoro-N-phenyl-1-(2-oxaspiro[3.3]heptan-6-yl)piperidine-4-carboxamide]
16 | 2,024 fold | 24.7 | > 50000 | CCCN1CCC(N2CC(F)(C(=O)N(Cc3ccc(-c4nnc(C(F)F)o4)cn3)c3ccccc3)C2)CC1 [Compound 3112, N-((5-(5-(difluoromethyl)-1,3,4-oxadiazol-2-yl)pyridin-2-yl)methyl)-3-fluoro-N-phenyl-1-(1-propylpiperidin-4-yl)azetidine-3-carboxamide]
17 | 2,040 fold | 24.5 | > 50000 | CC(C)N1CCC(N2CC(F)(C(=O)N(Cc3ccc(-c4nnc(C(F)F)o4)cn3)c3ccccc3)C2)CC1 [Compound 3115, N-((5-(5-(difluoromethyl)-1,3,4-oxadiazol-2-yl)pyridin-2-yl)methyl)-3-fluoro-1-(1-isopropylpiperidin-4-yl)-N-phenylazetidine-3-carboxamide]
18 | 1,992 fold | 25.1 | > 50000 | CN(C)CCCC(=O)N1CC(F)(C(=O)N(Cc2ccc(-c3nnc(C(F)F)o3)cn2)c2cccc(F)c2)C1 [Compound 3098, N-((5-(5-(difluoromethyl)-1,3,4-oxadiazol-2-yl)pyridin-2-yl)methyl)-1-(4-(dimethylamino)butanoyl)-3-fluoro-N-(3-fluorophenyl)azetidine-3-carboxamide]
19 | 57 fold | 877 | > 50000 | CC(C)(C)OC(=O)N1CC(F)(C(=O)N(Cc2ccc(-c3nnc(C(F)(F)F)o3)cn2)c2cccc(F)c2)C1 [Compound 6890, tert-butyl 3-fluoro-3-((3-fluorophenyl)((5-(5-(trifluoromethyl)-1,3,4-oxadiazol-2-yl)pyridin-2-yl)methyl)carbamoyl)azetidine-1-carboxylate]
20 | 967 fold | 51.7 | > 50000 | CCN1CCC(F)(C(=O)N(Cc2ccc(-c3nnc(C(F)F)o3)cn2)c2cccc(F)c2)CC1 [Compound 3443, N-((5-(5-(difluoromethyl)-1,3,4-oxadiazol-2-yl)pyridin-2-yl)methyl)-1-ethyl-4-fluoro N-(3-fluorophenyl)piperidine-4-carboxamide]
